Test [1] relates to ATXN3 pre-mRNA. The experiment in a line: RT-qPCR Assay to Quantify Exon 4 Skipping in ATXN3 pre-mRNA in Cells. The format is cell-based. The conditions noted are these: percent exon 4 skipping in ATXN3 pre-mRNA, RT-qPCR of cell lysates; average IC50. Put shortly:
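IC50 derives from a dose-response fit of percent exon 4 skipping, quantified by RT-qPCR on crude lysates. Compounds tested as 7-point 3.16-fold dilutions in duplicate; cells (10,000/well) were exposed for 24 h at 37 °C before lysis.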
In general terms: In qPCR the cycle at which signal appears reflects the starting amount.

Test [2] has as its system Total ATXN3 (tATXN3) protein. The experiment in a line: Endogenous Total ATXN3 (tATXN3) Protein Assay (MSD immunoassay of cell lysates). The class given is cell-based. As to conditions: average IC50, total ATXN3 protein in cell lysate after 48 h with compound (Table 1). Put shortly:
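By electrochemiluminescent MSD sandwich immunoassay (mouse monoclonal capture, rabbit monoclonal and SULFO-TAG anti-rabbit detection), endogenous ATXN3 was quantified in lysates of cells treated 48 h at 37° C at 10,000 cells/well. Treatment used a 7-point 3.16-fold duplicate dilution series, with average IC50 grouped into star categories.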

The IC50 is the concentration that gives 50% inhibition. With `COc1ncccc1C#Cc1c([C@H]2CC=CC[C@@H]2N)sc2c(NCc3cccs3)cc(Cl)nc12` [Compound 394, 2-((1S,6S)-6-aminocyclohex-3-en-1-yl)-5-chloro-3-((2-methoxypyridin-3-yl)ethynyl)-N-(thiophen-2-ylmethyl)thieno[3,2-b]pyridin-7-amine], the IC50 in test [1] and in test [2] was 300 to 1000 nM in each case.
On to `N[C@H]1CC=CC[C@@H]1c1sc2c(NCc3cccs3)cc(Cl)nc2c1C#Cc1ccncc1` [Compound 395, 2-((1S,6S)-6-aminocyclohex-3-en-1-yl)-5-chloro-3-(pyridin-4-ylethynyl)-N-(thiophen-2-ylmethyl)thieno[3,2-b]pyridin-7-amine], for which the IC50 fell in the range of 30 to 300 nM in test [1] and 300 to 1000 nM in test [2].
For `N[C@@H]1CC=CC[C@H]1c1sc2c(NCc3ccco3)nc(Cl)nc2c1Br` [Compound 396, 6-((1R,6R)-6-aminocyclohex-3-en-1-yl)-7-bromo-2-chloro-N-(furan-2-ylmethyl)thieno[3,2-d]pyrimidin-4-amine], in that order: 30 to 300 nM and 300 to 1000 nM.
On the same counts, the results for `CC#CCNc1cc(Cl)nc2c(Br)c([C@H]3CCOC[C@@H]3N)sc12` [Compound 398, 2-((3R,4S)-3-aminotetrahydro-2H-pyran-4-yl)-3-bromo-N-(but-2-yn-1-yl)-5-chlorothieno[3,2-b]pyridin-7-amine] are 30 to 300 nM and 300 to 1000 nM.
For `Cc1c([C@H]2CC=CC[C@@H]2N)n(C(F)F)c2c(NCc3ccccc3)nc(Cl)nc12` [Compound 399, 6-((1S,6S)-6-aminocyclohex-3-en-1-yl)-N-benzyl-2-chloro-5-(difluoromethyl)-7-methyl-5H-pyrrolo[3,2-d]pyrimidin-4-amine], in that order: 300 to 1000 nM and 300 to 1000 nM.
As for `Cc1c([C@@H]2CCCC[C@H]2N)sc2c(NCc3ccco3)cc(Cl)nc12` [Compound 401, 2-((1R,2R)-2-aminocyclohexyl)-5-chloro-N-(furan-2-ylmethyl)-3-methylthieno[3,2-b]pyridin-7-amine], the IC50 in test [1] is 300 to 1000 nM; in test [2], more than 1000 nM.
On to `N[C@@H]1CC=CC[C@H]1c1sc2c(NCc3ccccc3)cc(Cl)nc2c1Br` [Compound 403, 2-((1R,6R)-6-aminocyclohex-3-en-1-yl)-N-benzyl-3-bromo-5-chlorothieno[3,2-b]pyridin-7-amine], for which the IC50 lay in the range of 30 to 300 nM in test [1] and 300 to 1000 nM in test [2].
On the same counts, the results for `N[C@@H]1CC=CC[C@H]1c1sc2c(NCc3ccccc3)cc(Cl)nc2c1Cl` [Compound 404, 2-((1R,6R)-6-aminocyclohex-3-en-1-yl)-N-benzyl-3,5-dichlorothieno[3,2-b]pyridin-7-amine] are 30 to 300 nM and 30 to 300 nM.
Turning to `N[C@@H]1CCOC[C@H]1c1sc2c(NCc3cccs3)cc(Cl)nc2c1Cl` [Compound 405, 2-((3S,4R)-4-aminotetrahydro-2H-pyran-3-yl)-3,5-dichloro-N-(thiophen-2-ylmethyl)thieno[3,2-b]pyridin-7-amine], the IC50 in test [1] and in test [2] was not above 30 nM in each case.
On to `N[C@@H]1CCOC[C@H]1c1sc2c(NCc3ccccc3)cc(Cl)nc2c1Cl` [Compound 406, 2-((3S,4R)-4-aminotetrahydro-2H-pyran-3-yl)-N-benzyl-3,5-dichlorothieno[3,2-b]pyridin-7-amine], for which the IC50 in test [1] was not above 30 nM; in test [2], 30 to 300 nM.
On the same counts, the results for `N[C@@H]1COCC[C@H]1c1sc2c(NCc3nccs3)cc(Cl)nc2c1Cl` [Compound 407, 2-((3S,4R)-3-aminotetrahydro-2H-pyran-4-yl)-3,5-dichloro-N-(thiazol-2-ylmethyl)thieno[3,2-b]pyridin-7-amine] are 30 to 300 nM and 30 to 300 nM.
For `N[C@@H]1COCC[C@H]1c1sc2c(NCc3nccs3)cc(Cl)nc2c1I` [Compound 408, 2-((3S,4R)-3-aminotetrahydro-2H-pyran-4-yl)-5-chloro-3-iodo-N-(thiazol-2-ylmethyl)thieno[3,2-b]pyridin-7-amine], in that order: 30 to 300 nM and 30 to 300 nM.
On the same counts, the results for `N[C@@H]1CCCC(F)(F)[C@H]1c1sc2c(NCc3cccs3)cc(Cl)nc2c1Cl` [Compound 409, 2-((1S,6R)-6-amino-2,2-difluorocyclohexyl)-3,5-dichloro-N-(thiophen-2-ylmethyl)thieno[3,2-b]pyridin-7-amine] are 30 to 300 nM and 30 to 300 nM.
With `N[C@@H]1COCC[C@H]1c1sc2c(NCc3ccco3)cc(Cl)nc2c1Cl` [Compound 410, 2-((3S,4R)-3-aminotetrahydro-2H-pyran-4-yl)-3,5-dichloro-N-(furan-2-ylmethyl)thieno[3,2-b]pyridin-7-amine], the IC50 in test [1] and in test [2] was 30 to 300 nM throughout.
Consider `N[C@@H]1CC=CC[C@H]1c1sc2c(NCc3ccccc3F)cc(Cl)nc2c1Br` [Compound 411, 2-((1R,6R)-6-aminocyclohex-3-en-1-yl)-3-bromo-5-chloro-N-(2-fluorobenzyl)thieno[3,2-b]pyridin-7-amine], for which the IC50 in test [1] and in test [2] was 30 to 300 nM throughout.
Take `N[C@@H]1CCCC(F)(F)[C@H]1c1sc2c(NCc3ccco3)nc(Cl)nc2c1Br` [Compound 412, 6-((1S,6R)-6-amino-2,2-difluorocyclohexyl)-7-bromo-2-chloro-N-(furan-2-ylmethyl)thieno[3,2-d]pyrimidin-4-amine]: the IC50 in test [1] and in test [2] was 300 to 1000 nM in each case.
For the compound `Cc1c([C@@H]2CC=CC[C@H]2N)sc2c(NCc3ccco3)nc(Cl)nc12` [Compound 413, 6-((1R,6R)-6-aminocyclohex-3-en-1-yl)-2-chloro-N-(furan-2-ylmethyl)-7-methylthieno[3,2-d]pyrimidin-4-amine], the half-inhibitory concentration (IC50) in test [1] and in test [2] was 30 to 300 nM each time.
As to `N[C@@H]1CC=CC[C@H]1c1sc2c(NCc3ccccc3)nc(Cl)nc2c1I` [Compound 414, 6-((1R,6R)-6-aminocyclohex-3-en-1-yl)-N-benzyl-2-chloro-7-iodothieno[3,2-d]pyrimidin-4-amine], the values for the IC50 in test [1] and in test [2] were 30 to 300 nM and 300 to 1000 nM, respectively.
For `N[C@@H]1CC=CC[C@H]1c1sc2c(NCc3ccsc3)cc(Cl)nc2c1Br` [Compound 415, 2-((1R,6R)-6-aminocyclohex-3-en-1-yl)-3-bromo-5-chloro-N-(thiophen-3-ylmethyl)thieno[3,2-b]pyridin-7-amine], in that order: 300 to 1000 nM and 300 to 1000 nM.
`N[C@@H]1CCCO[C@H]1c1c(I)c2nc(Cl)nc(NCc3cccs3)c2n1C(F)F` [Compound 416, 6-((2R,3R)-3-aminotetrahydro-2H-pyran-2-yl)-2-chloro-5-(difluoromethyl)-7-iodo-N-(thiophen-2-ylmethyl)-5H-pyrrolo[3,2-d]pyrimidin-4-amine]: the IC50 in test [1] and in test [2] was 30 to 300 nM throughout.
With `N[C@@H]1CC=CC[C@H]1c1c(Cl)c2nc(Cl)cc(NCc3ccccc3)c2n1C(F)F` [Compound 417, 2-((1R,6R)-6-aminocyclohex-3-en-1-yl)-N-benzyl-3,5-dichloro-1-(difluoromethyl)-1H-pyrrolo[3,2-b]pyridin-7-amine], the IC50 in test [1] and in test [2] was not above 30 nM each time.

Values taken from patent US20250382305A1 (PTC THERAPEUTICS, INC., priority 2022, published 2025).
